Experimental data taken from patent US9446039B2, “Aminoheteroaryl compounds as MTH1 inhibitors” (CEMM—FORSCHUNGSZENTRUM FÜR MOLEKULARE MEDIZIN GMBH, priority 2012, dated 2016).

How the values were obtained:
Format in all cases: binding
[1] = target: SW480 colon carcinoma cells lysate proteins (Homo sapiens, UniProt P14625); settings: PreyGene HSP90B1
[2] = target: T1, SW480 colon carcinoma cells lysate proteins (Homo sapiens, UniProt P55209); settings: PreyGene NAP1L1
T1 sequence (P55209 1-391): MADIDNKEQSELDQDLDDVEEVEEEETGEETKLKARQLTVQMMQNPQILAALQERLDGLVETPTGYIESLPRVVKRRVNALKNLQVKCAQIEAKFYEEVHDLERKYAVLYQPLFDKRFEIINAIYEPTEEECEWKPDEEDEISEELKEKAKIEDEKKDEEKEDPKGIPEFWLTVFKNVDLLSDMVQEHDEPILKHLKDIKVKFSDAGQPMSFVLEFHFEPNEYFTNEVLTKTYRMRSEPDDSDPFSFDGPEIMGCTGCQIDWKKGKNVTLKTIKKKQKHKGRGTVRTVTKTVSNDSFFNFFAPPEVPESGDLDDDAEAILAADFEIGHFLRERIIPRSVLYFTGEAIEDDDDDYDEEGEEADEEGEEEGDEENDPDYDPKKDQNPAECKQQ

[3] = target: T2, SW480 colon carcinoma cells lysate proteins (Homo sapiens, UniProt P61916); settings: PreyGene NPC2
T2 sequence (P61916 20-151): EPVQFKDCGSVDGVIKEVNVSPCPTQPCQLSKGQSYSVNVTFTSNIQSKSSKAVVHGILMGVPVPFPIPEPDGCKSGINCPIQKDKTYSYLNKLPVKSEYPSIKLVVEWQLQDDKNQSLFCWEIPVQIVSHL

[4] = target: SW480 colon carcinoma cells lysate proteins (Homo sapiens, UniProt Q07812); settings: PreyGene BAX; SW480 cells
SW480 colon carcinoma cells lysate proteins (Homo sapiens, UniProt Q07812), sequence (Q07812 whole entry): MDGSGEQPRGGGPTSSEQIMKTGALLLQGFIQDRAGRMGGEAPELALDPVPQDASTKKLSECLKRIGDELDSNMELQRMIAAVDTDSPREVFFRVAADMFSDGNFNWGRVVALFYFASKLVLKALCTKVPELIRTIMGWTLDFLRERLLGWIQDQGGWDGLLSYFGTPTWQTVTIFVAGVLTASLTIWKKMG

[5] = target: SW480 colon carcinoma cells lysate proteins (Homo sapiens, UniProt Q13561); settings: PreyGene DCTN2
SW480 colon carcinoma cells lysate proteins (Homo sapiens, UniProt Q13561), sequence (Q13561 whole entry): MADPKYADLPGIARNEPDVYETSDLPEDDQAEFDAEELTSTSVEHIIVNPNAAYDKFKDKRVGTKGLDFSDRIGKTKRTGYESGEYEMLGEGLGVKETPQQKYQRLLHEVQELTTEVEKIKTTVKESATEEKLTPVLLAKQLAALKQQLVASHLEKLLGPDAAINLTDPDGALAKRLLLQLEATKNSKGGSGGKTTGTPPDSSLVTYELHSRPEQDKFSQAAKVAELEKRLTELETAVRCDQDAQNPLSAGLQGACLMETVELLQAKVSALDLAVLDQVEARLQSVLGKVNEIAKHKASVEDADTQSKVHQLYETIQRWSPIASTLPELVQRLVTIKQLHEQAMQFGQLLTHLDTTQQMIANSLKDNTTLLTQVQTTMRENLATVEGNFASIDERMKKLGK

[6] = target: SW480 colon carcinoma cells lysate proteins (Homo sapiens, UniProt Q13885); settings: PreyGene TUBB2A; SW480 cells
SW480 colon carcinoma cells lysate proteins (Homo sapiens, UniProt Q13885), sequence (Q13885 whole entry): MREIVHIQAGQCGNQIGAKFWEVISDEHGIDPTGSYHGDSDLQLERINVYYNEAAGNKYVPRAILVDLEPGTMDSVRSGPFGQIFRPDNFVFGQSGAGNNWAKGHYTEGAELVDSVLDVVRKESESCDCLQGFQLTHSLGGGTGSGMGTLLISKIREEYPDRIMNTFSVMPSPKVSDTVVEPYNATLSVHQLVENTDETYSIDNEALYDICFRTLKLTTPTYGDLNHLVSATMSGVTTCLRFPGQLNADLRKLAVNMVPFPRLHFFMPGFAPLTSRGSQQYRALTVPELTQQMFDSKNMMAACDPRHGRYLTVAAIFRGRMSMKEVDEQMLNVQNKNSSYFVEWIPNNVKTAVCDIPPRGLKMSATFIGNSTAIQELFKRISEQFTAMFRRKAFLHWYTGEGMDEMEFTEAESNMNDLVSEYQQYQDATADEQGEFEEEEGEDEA

[7] = target: T3, SW480 colon carcinoma cells lysate proteins (Homo sapiens, UniProt Q9NSD9); settings: PreyGene FARSB
T3 sequence (Q9NSD9 1-589): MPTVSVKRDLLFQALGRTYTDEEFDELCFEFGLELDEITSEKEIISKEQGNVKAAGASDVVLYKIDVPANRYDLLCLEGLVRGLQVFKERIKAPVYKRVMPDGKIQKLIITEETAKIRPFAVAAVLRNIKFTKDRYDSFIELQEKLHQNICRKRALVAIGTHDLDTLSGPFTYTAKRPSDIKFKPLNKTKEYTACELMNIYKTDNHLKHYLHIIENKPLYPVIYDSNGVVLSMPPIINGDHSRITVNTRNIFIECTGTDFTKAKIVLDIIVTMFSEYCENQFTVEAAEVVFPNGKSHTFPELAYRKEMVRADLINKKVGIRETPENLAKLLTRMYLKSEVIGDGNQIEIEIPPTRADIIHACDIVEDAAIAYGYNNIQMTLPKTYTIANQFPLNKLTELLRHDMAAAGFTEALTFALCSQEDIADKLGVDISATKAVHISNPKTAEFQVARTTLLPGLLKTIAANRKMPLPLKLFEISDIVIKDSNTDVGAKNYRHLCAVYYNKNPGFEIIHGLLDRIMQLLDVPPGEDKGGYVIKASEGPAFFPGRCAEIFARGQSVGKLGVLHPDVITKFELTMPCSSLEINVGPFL

[8] = target: SW480 colon carcinoma cells lysate proteins (Homo sapiens, UniProt Q9Y266); settings: PreyGene NUDC; SW480 cells
SW480 colon carcinoma cells lysate proteins (Homo sapiens, UniProt Q9Y266), sequence (Q9Y266 whole entry): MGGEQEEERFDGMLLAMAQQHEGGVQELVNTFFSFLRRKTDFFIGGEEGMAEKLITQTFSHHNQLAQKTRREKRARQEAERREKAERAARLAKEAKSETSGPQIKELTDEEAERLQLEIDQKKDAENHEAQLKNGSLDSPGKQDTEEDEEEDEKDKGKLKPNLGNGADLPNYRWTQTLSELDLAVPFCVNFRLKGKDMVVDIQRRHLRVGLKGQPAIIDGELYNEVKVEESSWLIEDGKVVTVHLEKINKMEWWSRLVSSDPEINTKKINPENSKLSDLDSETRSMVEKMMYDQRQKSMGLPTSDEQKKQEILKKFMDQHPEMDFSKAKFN

SW480 colon carcinoma cells lysate proteins (Homo sapiens, UniProt P14625), sequence (P14625 22-803): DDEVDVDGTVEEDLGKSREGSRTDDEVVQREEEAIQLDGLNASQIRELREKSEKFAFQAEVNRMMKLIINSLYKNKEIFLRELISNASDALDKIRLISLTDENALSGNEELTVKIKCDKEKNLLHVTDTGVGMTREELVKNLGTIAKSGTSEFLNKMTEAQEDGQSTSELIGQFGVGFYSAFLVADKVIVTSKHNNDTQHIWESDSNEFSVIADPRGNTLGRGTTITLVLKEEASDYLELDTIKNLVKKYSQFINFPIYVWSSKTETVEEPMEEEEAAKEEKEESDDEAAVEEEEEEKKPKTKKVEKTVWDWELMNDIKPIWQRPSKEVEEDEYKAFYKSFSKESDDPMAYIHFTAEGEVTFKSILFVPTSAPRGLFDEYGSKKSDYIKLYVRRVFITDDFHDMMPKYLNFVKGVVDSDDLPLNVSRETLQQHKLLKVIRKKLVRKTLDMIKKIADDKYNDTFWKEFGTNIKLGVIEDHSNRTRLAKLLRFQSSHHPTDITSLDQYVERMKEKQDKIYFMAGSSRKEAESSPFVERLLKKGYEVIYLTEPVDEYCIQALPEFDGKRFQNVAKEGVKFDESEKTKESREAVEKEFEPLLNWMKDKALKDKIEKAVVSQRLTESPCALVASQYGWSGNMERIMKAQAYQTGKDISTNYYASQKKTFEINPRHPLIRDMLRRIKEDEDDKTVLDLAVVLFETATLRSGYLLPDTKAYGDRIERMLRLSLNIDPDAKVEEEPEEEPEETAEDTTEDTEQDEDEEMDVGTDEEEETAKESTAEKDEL

## C[C@H](Oc1cc(-c2cnn(C3CCNCC3)c2)cnc1N)c1c(Cl)ccc(F)c1Cl [(5)-crizotinib]
[1]
  AvgP: 0.228
  SC.Exp. 1-1: 13
  SC.Exp. 1-2: 8
  SC.Exp. 2-1: 0
  SC.Exp. 2-2: 0
  Sum (SC.Exp.): 21
[2]
  AvgP: 0.2244
  SC.Exp. 1-1: 1
  SC.Exp. 1-2: 2
  SC.Exp. 2-1: 0
  SC.Exp. 2-2: 0
  Sum (SC.Exp.): 3
[3]
  AvgP: 0.3813
  SC.Exp. 1-1: 2
  SC.Exp. 1-2: 2
  SC.Exp. 2-1: 0
  SC.Exp. 2-2: 0
  Sum (SC.Exp.): 4
[4]
  AvgP: 0
  SC.Exp. 1-1: 1
  SC.Exp. 1-2: 1
  SC.Exp. 2-1: 1
  SC.Exp. 2-2: 1
  SC.Exp. Sum: 4
[5]
  AvgP: 0.2964
  SC.Exp. 1-1: 2
  SC.Exp. 1-2: 3
  SC.Exp. 2-1: 0
  SC.Exp. 2-2: 0
  Sum (SC.Exp.): 5
[6]
  AvgP: 0
  SC.Exp. 1-1: 5
  SC.Exp. 1-2: 4
  SC.Exp. 2-1: 2
  SC.Exp. 2-2: 2
  SC.Exp. Sum: 13
[7]
  AvgP: 0.3413
  SC.Exp. 1-1: 3
  SC.Exp. 1-2: 2
  SC.Exp. 2-1: 0
  SC.Exp. 2-2: 0
  Sum (SC.Exp.): 5
[8]
  AvgP: 0
  SC.Exp. 1-1: 0
  SC.Exp. 1-2: 1
  SC.Exp. 2-1: 0
  SC.Exp. 2-2: 0
  SC.Exp. Sum: 1
